These sequences were tested on CD8+ T cells.
Assay type: cell-based, human

| Sequence | #SFU |
| --- | --- |
| ELPQWLSANR | <10 |
| QTVEDEARRMW | 84 |
| RADEEQQQAL | 120 |

Source: patent publication US8440206B2 (priority 2006, dated 2013)
